The results in this text go back to article PMC7111470 (European Journal of Medicinal Chemistry, 2011).

Test [1] deals with T1, BCoV 9-SOAE (haemagglutinin-esterase on whole virus) (Bovine coronavirus Mebus, UniProt P15776). As to the kind of experiment: pNPA hydrolysis, A400. The class given is biochemical. The settings on record: read-out: BCoV / 3.
In test [2] the target is T1, BCoV 9-SOAE (haemagglutinin-esterase on whole virus). Nature of the test: pNPA hydrolysis, A400. The class given is biochemical.

A value given as a limit tells only on which side of the number the result lay.

T1 sequence (P15776 17-424): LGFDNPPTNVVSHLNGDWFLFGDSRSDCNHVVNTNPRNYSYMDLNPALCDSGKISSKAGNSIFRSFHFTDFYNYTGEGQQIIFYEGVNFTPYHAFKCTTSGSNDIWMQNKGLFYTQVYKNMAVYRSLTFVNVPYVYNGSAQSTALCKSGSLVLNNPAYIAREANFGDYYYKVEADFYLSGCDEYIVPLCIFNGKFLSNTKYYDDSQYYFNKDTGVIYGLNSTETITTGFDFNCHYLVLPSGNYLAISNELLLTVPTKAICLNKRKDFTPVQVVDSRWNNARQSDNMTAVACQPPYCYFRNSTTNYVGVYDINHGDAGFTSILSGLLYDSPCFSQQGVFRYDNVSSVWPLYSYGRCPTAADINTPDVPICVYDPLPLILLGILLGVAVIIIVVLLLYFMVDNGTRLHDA

With `C=CCO[C@]1(C(=O)O)C[C@H](O)[C@@H](NC(C)=O)[C@H]([C@H](O)[C@H](O)COC)O1` [compound 3, Ammonium (allyl 5-acetamido-9-O-methyl-3,5-dideoxy-d-glycero-α-d-galacto-2-nonulopyranosidonate)], in test [1], the inhibition at 2000 µM was below 0%. As to `CC(=O)Oc1ccc([N+](=O)[O-])cc1` [p-nitrophenyl acetate], the “pNPA hydrolysis, A400” value in test [2] is “esterase activities of all viruses and recombinant proteins were determined with p-nitrophenyl acetate (pNPA)”.
